The source of these data is PubChem BioAssay (NCI).

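The compound was tested at five concentrations on cells cultured in 96-well plates, with a 48-hour exposure period. Here, GI50 denotes the concentration required for 50% inhibition of growth. TGI: total growth inhibition.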

Test systems include EKVX NSCLC; HL-60(TB) leukemia; MOLT-4 leukemia; SK-OV-3 ovarian; SNB-75 CNS; U251 CNS; UACC-257 melanoma; SK-MEL-5 melanoma; SR leukemia; HCC-2998 colon.
Assay in all cases: growth of human tumour cells (NCI), 48 h

For the molecule `CCN1CCCCC(=N\O)/C(=N/O)CCCC1`, the TGI in the assay with EKVX NSCLC, in the assay with HL-60(TB) leukemia, with MOLT-4 leukemia, in the assay with SK-OV-3 ovarian, in the assay with SNB-75 CNS and in the assay on U251 CNS was above 100 µM in each case. The TGI with UACC-257 melanoma, in the assay with SK-MEL-5 melanoma and in the assay on SR leukemia was above 100 µM throughout.
`C=C1C(=O)O[C@H]2[C@H]1CC/C(COC(=O)C(=O)c1cn(C)c3ccc(OC)cc13)=C\CC[C@@]1(C)O[C@@H]21`: the GI50 in the assay with EKVX NSCLC is 8.19 µM; in the assay with HL-60(TB) leukemia, 3.03 µM; in the assay with MOLT-4 leukemia it was 3.65 µM; with SK-OV-3 ovarian, 13.6 µM; in the assay with SNB-75 CNS, 6.69 µM; with U251 CNS it was 6.58 µM. In addition, the GI50 in the assay with HCC-2998 colon is 5.14 µM; in the assay with UACC-257 melanoma, 4.82 µM; in the assay on SK-MEL-5 melanoma it was 4.03 µM; in the assay with SR leukemia it was 2.34 µM. The TGI with EKVX NSCLC turned out to be 16.3 µM; in the assay on HL-60(TB) leukemia it was 8.89 µM; in the assay with MOLT-4 leukemia it was 16 µM; in the assay on SK-OV-3 ovarian, 29.3 µM; in the assay on SNB-75 CNS, 11.8 µM; in the assay on U251 CNS, 10.1 µM. For the same molecule, the TGI is 9.72 µM in the assay on HCC-2998 colon, 9.73 µM in the assay with UACC-257 melanoma, 7.56 µM in the assay with SK-MEL-5 melanoma and 42.5 µM with SR leukemia.
In the case of `CCc1cccc(C(C)CC)c1NC(=O)CC1C(=O)Nc2ccccc2S1=O` (stereo not drawn), the TGI in the assay on EKVX NSCLC was above 100 µM; with HL-60(TB) leukemia it was above 100 µM; in the assay with MOLT-4 leukemia, 69 µM; in the assay with SNB-75 CNS it was 49.4 µM; with U251 CNS, 48.5 µM; in the assay on HCC-2998 colon, above 100 µM. In addition, the TGI with UACC-257 melanoma is above 100 µM; in the assay with SK-MEL-5 melanoma, above 100 µM; in the assay on SR leukemia, 73.6 µM.
For `COc1ccc(/C=C/C(C(=O)O)C(=O)O)cc1`, the TGI was above 100 µM in the assay on EKVX NSCLC; 74.7 µM with HL-60(TB) leukemia; 84.8 µM in the assay with MOLT-4 leukemia; above 100 µM in the assay with SK-OV-3 ovarian; above 100 µM in the assay on U251 CNS; above 100 µM with HCC-2998 colon. For the same molecule, the TGI with UACC-257 melanoma, with SK-MEL-5 melanoma and with SR leukemia was above 100 µM throughout.
Take `COc1ccc2sc3c(NCCCNCCO)nc4ccccc4c3c(=O)c2c1`: the GI50 in the assay on EKVX NSCLC is 1.45 µM; with HL-60(TB) leukemia, 1.98 µM; in the assay on MOLT-4 leukemia, 1.93 µM; in the assay with SNB-75 CNS, 1.82 µM; with U251 CNS it was 1.6 µM; in the assay on HCC-2998 colon it was 1.68 µM. For the same molecule, the GI50 in the assay with UACC-257 melanoma is 1.93 µM; in the assay on SK-MEL-5 melanoma, 1.76 µM; in the assay on SR leukemia, 1.97 µM. For the same molecule, the TGI stood at 2.94 µM in the assay with EKVX NSCLC; 3.89 µM in the assay with HL-60(TB) leukemia; 3.81 µM with MOLT-4 leukemia; 3.34 µM in the assay with SNB-75 CNS; 3.16 µM in the assay with U251 CNS; 3.29 µM with HCC-2998 colon. The values for the TGI in the assay with UACC-257 melanoma, in the assay on SK-MEL-5 melanoma and with SR leukemia were 3.99 µM, 3.18 µM and 5.61 µM, respectively.
As for `CC(C)(CCC(C)(C)c1ccccc1)c1ccccc1`, the TGI in the assay with EKVX NSCLC was determined as 32.4 µM; with HL-60(TB) leukemia, 32.5 µM; in the assay on MOLT-4 leukemia it was 41.4 µM; in the assay on SK-OV-3 ovarian it was 82.6 µM; in the assay on SNB-75 CNS, 36.7 µM; with U251 CNS it was 30.4 µM. In addition, the values for the TGI in the assay with UACC-257 melanoma, in the assay on SK-MEL-5 melanoma and in the assay on SR leukemia were 29.2 µM, 28.5 µM and 50 µM, respectively.
Take `COc1cccc2c(Nc3ccc(C(=O)NCCN(C)C)cc3)cc(-c3ccccc3)nc12`: the GI50 was 27 µM in the assay on EKVX NSCLC; 14.9 µM in the assay on HL-60(TB) leukemia; 29.4 µM in the assay on SK-OV-3 ovarian; 29.5 µM with SNB-75 CNS; 18.8 µM in the assay with U251 CNS; 11.5 µM in the assay on HCC-2998 colon. The GI50 with UACC-257 melanoma was 15.7 µM; in the assay with SK-MEL-5 melanoma it was 17.3 µM; in the assay with SR leukemia, 1.86 µM. Further, the TGI came to 81.4 µM in the assay with EKVX NSCLC; 39.9 µM in the assay on HL-60(TB) leukemia; 71.2 µM with SK-OV-3 ovarian; 66 µM in the assay with SNB-75 CNS; 38.3 µM with U251 CNS; 24.9 µM in the assay on HCC-2998 colon. Also, the TGI worked out at 29.9 µM in the assay with UACC-257 melanoma, 32.1 µM with SK-MEL-5 melanoma and 7.52 µM with SR leukemia.
On to `C=CCNc1cccc2c1C(=O)c1ccccc1C2(O)CC=C` (stereo not drawn), for which the GI50 was 31.8 µM in the assay with EKVX NSCLC; 47.2 µM in the assay on HL-60(TB) leukemia; 41.8 µM in the assay on MOLT-4 leukemia; 17 µM in the assay on SNB-75 CNS; 17.4 µM in the assay with U251 CNS; 20.1 µM in the assay on HCC-2998 colon. The GI50 in the assay with UACC-257 melanoma is 15 µM; with SK-MEL-5 melanoma it was 16 µM; in the assay on SR leukemia, 36.8 µM. The TGI in the assay with EKVX NSCLC was above 100 µM; with HL-60(TB) leukemia, above 100 µM; with MOLT-4 leukemia it was above 100 µM; with SNB-75 CNS, 45.7 µM; in the assay with U251 CNS, 39.2 µM; in the assay on HCC-2998 colon, 37.4 µM. Moreover, the results for the TGI in the assay on UACC-257 melanoma, with SK-MEL-5 melanoma and in the assay on SR leukemia were 39 µM, 30.2 µM and above 100 µM, respectively.
For `COC(=O)c1ccccc1N=Cc1ccc(N(CCC#N)S(=O)(=O)c2ccccc2)cc1`, the TGI in the assay with EKVX NSCLC, in the assay with HL-60(TB) leukemia, in the assay with MOLT-4 leukemia, in the assay with SK-OV-3 ovarian, with SNB-75 CNS and in the assay with U251 CNS was above 100 µM each time. Further, the TGI with UACC-257 melanoma, in the assay with SK-MEL-5 melanoma and with SR leukemia was above 100 µM each time.
For the molecule `CS(=O)(=O)CS(=O)CS(=O)CS(=O)CC(NC(=O)CCC(N)C(=O)O)C(=O)O` (stereo not drawn), the TGI in the assay on EKVX NSCLC, in the assay on HL-60(TB) leukemia, in the assay on MOLT-4 leukemia, in the assay on SNB-75 CNS, in the assay with U251 CNS and with HCC-2998 colon was above 100 µM throughout. The TGI with UACC-257 melanoma, in the assay on SK-MEL-5 melanoma and with SR leukemia was above 100 µM in each case.
